pIC50: −log10 of the molar value. Calls of active or inactive are those of the source. The calls are words filed in the database; no cut-off is given here.
Columns and labels:
MUGMel1 [1] = experiment: Cytotoxicity against human MUGMel1 cells assessed as reduction in cell viability after 24 hrs by EZ4U reagent based spectrophotometric method; format: functional; conditions: MUGMel1, 24 h
MUGMel2 [2] = experiment: Cytotoxicity against human MUGMel2 cells harboring NRAS pQ61K mutant assessed as reduction in cell viability after 48 hrs by EZ4U reagent based spectrophotometric method; format: functional; conditions: MUGMel2, 48 h
MUGMel2 [3] = experiment: Cytotoxicity against human MUGMel2 cells harboring NRAS pQ61K mutant assessed as reduction in cell viability after 72 hrs by EZ4U reagent based spectrophotometric method; format: functional; conditions: MUGMel2, 72 h
SBcl2 [4] = experiment: Cytotoxicity against human SBcl2 cells harboring NRAS Q61I mutant assessed as reduction in cell viability after 72 hrs by EZ4U reagent based spectrophotometric method; format: functional; conditions: SBcl2, 72 h
WM164 [5] = experiment: Cytotoxicity against human WM164 cells harboring BRAF V600E mutant assessed as reduction in cell viability after 24 hrs by EZ4U reagent based spectrophotometric method; format: functional; conditions: WM164, 24 h
WM164 [6] = experiment: Cytotoxicity against human WM164 cells harboring BRAF V600E mutant assessed as reduction in cell viability after 72 hrs by EZ4U reagent based spectrophotometric method; format: functional; conditions: WM164, 72 h
MUGMel2 [7] = experiment: Induction of apoptosis in human MUGMel2 cells assessed as early apoptotic cells at IC50 concentration after 6 hrs by Annexin V/SYTOX Green based flow cytometric analysis (reference value: 2.89%); format: functional
SBcl2 [8] = experiment: Induction of apoptosis in human SBcl2 cells assessed as necrotic cells at IC50 concentration after 6 hrs by Annexin V/SYTOX Green based flow cytometric analysis (reference value: 0.17%); format: functional
WM164 [9] = experiment: Induction of apoptosis in human WM164 cells assessed as viable cells at IC50 concentration after 6 hrs by Annexin V/SYTOX Green based flow cytometric analysis (reference value: 94.77%); format: functional
WM164 [10] = experiment: Induction of apoptosis in human WM164 cells assessed as late apoptotic cells at IC50 concentration after 6 hrs by Annexin V/SYTOX Green based flow cytometric analysis (reference value: 1.41%); format: functional
WM164 [11] = experiment: Induction of apoptosis in human WM164 cells assessed as necrotic cells at IC50 concentration after 6 hrs by Annexin V/SYTOX Green based flow cytometric analysis (reference value: 0.81%); format: functional
WM793 [12] = experiment: Induction of apoptosis in human WM793 cells assessed as late apoptotic cells at IC50 concentration after 6 hrs by Annexin V/SYTOX Green based flow cytometric analysis (reference value: 0.71%); format: functional
WM793 [13] = experiment: Induction of apoptosis in human WM793 cells assessed as necrotic cells at IC50 concentration after 6 hrs by Annexin V/SYTOX Green based flow cytometric analysis (reference value: 0.32%); format: functional
MUGMel1 [14] = experiment: Induction of apoptosis in human MUGMel1 cells assessed as early apoptotic cells at IC50 concentration after 24 hrs by Annexin V/SYTOX Green based flow cytometric analysis (reference value: 3.27%); format: functional
MUGMel2 [15] = experiment: Induction of apoptosis in human MUGMel2 cells assessed as early apoptotic cells at IC50 concentration after 24 hrs by Annexin V/SYTOX Green based flow cytometric analysis (reference value: 3.31%); format: functional
MUGMel2 [16] = experiment: Induction of apoptosis in human MUGMel2 cells assessed as late apoptotic cells at IC50 concentration after 24 hrs by Annexin V/SYTOX Green based flow cytometric analysis (reference value: 9.64%); format: functional
WM164 [17] = experiment: Induction of apoptosis in human WM164 cells assessed as viable cells at IC50 concentration after 24 hrs by Annexin V/SYTOX Green based flow cytometric analysis (reference value: 94.62%); format: functional
WM164 [18] = experiment: Induction of apoptosis in human WM164 cells assessed as necrotic cells at IC50 concentration after 24 hrs by Annexin V/SYTOX Green based flow cytometric analysis (reference value: 0.85%); format: functional
WM793 [19] = experiment: Induction of apoptosis in human WM793 cells assessed as viable cells at IC50 concentration after 24 hrs by Annexin V/SYTOX Green based flow cytometric analysis (reference value: 96.52%); format: functional
[20] = Cytotoxicity against human A375-S2 cells assessed as reduction in cell viability after 48 hrs by MTT assay; format: functional, cell-based; conditions: A375-S2, 48 h
MUGMel1 [21] = experiment: Induction of apoptosis in human MUGMel1 cells assessed as increase in caspase -3 activity at IC50 concentration after 24 hrs by Alexa Fluor 647 antibody based flow cytometric analysis; format: functional, cell-based
MUGMel2 [22] = experiment: Induction of apoptosis in human MUGMel2 cells assessed as increase in caspase -3 activity at IC50 concentration after 24 hrs by Alexa Fluor 647 antibody based flow cytometric analysis; format: functional, cell-based
WM793 [23] = experiment: Induction of apoptosis in human WM793 cells assessed as increase in caspase -3 activity at IC50 concentration after 24 hrs by Alexa Fluor 647 antibody based flow cytometric analysis; format: functional, cell-based
WM164 [24] = experiment: Antitumour activity against human WM164 cells xenografted in NU(NCr)-Foxn1 mouse assessed as increase in necrotic cells at 1 to 4 ug/g administered for three consecutive days with 1 day interval for four cycle by hematoxylin and eosin staining based microscopic analysis; format: functional
WM793 [25] = experiment: Induction of apoptosis in human WM793 cells assessed as up regulation of NOXA protein expression at IC50 concentration after 24 hrs by Western blot analysis; format: functional, cell-based
MUGMel2 [26] = experiment: Induction of apoptosis in human MUGMel2 cells assessed as up regulation of NOXA protein expression at IC50 concentration after 24 hrs by Western blot analysis; format: functional, cell-based
MUGMel1 [27] = experiment: Induction of apoptosis in human MUGMel1 cells assessed as up regulation of NOXA protein expression at IC50 concentration after 24 hrs by Western blot analysis; format: functional, cell-based
SBcl2 [28] = experiment: Induction of apoptosis in human SBcl2 cells assessed as effect on BAX mRNA expression at IC50 concentration after 6 to 24 hrs by RT-qPCR analysis; format: functional, cell-based
WM164 [29] = experiment: Induction of apoptosis in human WM164 cells assessed as up regulation of PUMA at IC50 concentration after 6 to 24 hrs by RT-qPCR analysis; format: functional, cell-based
MUGMel2 [30] = experiment: Induction of apoptosis in human MUGMel2 cells assessed as up regulation of NOXA at IC50 concentration after 6 to 24 hrs by RT-qPCR analysis relative to control; format: functional
WM793 [31] = experiment: Induction of apoptosis in human WM793 cells assessed as effect on BAD protein expression at IC50 concentration after 24 hrs by Western blot analysis; format: functional, cell-based
MUGMel2 [32] = experiment: Induction of apoptosis in human MUGMel2 cells assessed as effect on PUMA protein expression at IC50 concentration after 24 hrs by Western blot analysis; format: functional, cell-based
MUGMel1 [33] = experiment: Induction of apoptosis in human MUGMel1 cells assessed as effect on BAX protein expression at IC50 concentration after 24 hrs by Western blot analysis; format: functional, cell-based
WM164 [34] = experiment: Antitumour activity against human WM164 cells xenografted in NU(NCr)-Foxn1 mouse assessed as increase in fibrosis at 1 to 4 ug/g administered for three consecutive days with 1 day interval for four cycle by hematoxylin and eosin staining based microscopic analysis; format: functional, cell-based

`CC(C)=CC[C@@H](OC(=O)C=C(C)C)C1=CC(=O)c2c(O)ccc(O)c2C1=O` [DIMETHYLACRYLSHIKONIN] gave a pIC50 (MUGMel1 [1]) of 5.72, a pIC50 (MUGMel2 [2]) of 5.64 and a pIC50 (MUGMel2 [3]) of 5.77. For the same compound, the pIC50 (SBcl2 [4]) was 5.92, the pIC50 (WM164 [5]) was 5.42 and the pIC50 (WM164 [6]) was 5.62. The Activity (MUGMel2 [7]) was 10.56%, the Activity (SBcl2 [8]) was 0.06% and the Activity (WM164 [9]) was 88.63%. The Activity (WM164 [10]) was 8.65%, the Activity (WM164 [11]) was 0.24% and the Activity (WM793 [12]) was 5.72%. It also gave an Activity (WM793 [13]) of 0.3%, an Activity (MUGMel1 [14]) of 40.28% and an Activity (MUGMel2 [15]) of 10.92%. The Activity (MUGMel2 [16]) was 43.89%, the Activity (WM164 [17]) was 75.03% and the Activity (WM164 [18]) was 0.52%. The Activity (WM793 [19]) was 83.29%, the pIC50 [20] was 5.15 and the Activity (MUGMel1 [21]) was “Active”. For the same compound, the Activity (MUGMel2 [22]) was “Active”, the Activity (WM793 [23]) was “Active” and the Activity (WM164 [24]) was 60%. For the same compound, the Activity (WM793 [25]) was “inactive”, the Activity (MUGMel2 [26]) was “Active” and the Activity (MUGMel1 [27]) was “Active”. The Activity (SBcl2 [28]) was “inactive”, the Activity (WM164 [29]) was “Active” and the “fold change (FC)” value (MUGMel2 [30]) was 6. For the same compound, the Activity (WM793 [31]) was “inactive”, the Activity (MUGMel2 [32]) was “inactive” and the Activity (MUGMel1 [33]) was “inactive”. The Activity (WM164 [34]) was “Active”.

From ChEMBL document CHEMBL4602659, “β,β-Dimethylacrylshikonin Induces Apoptosis in Melanoma Cell Lines by NOXA Upregulation” (J Nat Prod, 2020)
